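Here, GI50 denotes the concentration required for 50% inhibition of growth. TGI marks complete inhibition of growth.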
Assays:
Experiment in all cases: growth of human tumour cells (NCI), 384-well format; in the data active means GI50 below about 0.43 µM; inactive means the rest
[1] = tested on: 786-0 renal
[2] = tested on: A498 renal
[3] = tested on: A549 NSCLC
[4] = tested on: ACHN renal
[5] = tested on: BT-549 breast
[6] = tested on: CAKI-1 renal
[7] = tested on: CCRF-CEM leukemia
[8] = tested on: COLO 205 colon
[9] = tested on: DU-145 prostate
[10] = tested on: EKVX NSCLC
[11] = tested on: HCC-2998 colon
[12] = tested on: HCT-116 colon
[13] = tested on: HCT-15 colon
[14] = tested on: HL-60(TB) leukemia
[15] = tested on: HOP-62 NSCLC
[16] = tested on: HOP-92 NSCLC
[17] = tested on: HS 578T breast
[18] = tested on: HT29 colon
[19] = tested on: IGROV1 ovarian
[20] = tested on: K-562 leukemia
[21] = tested on: KM12 colon
[22] = tested on: LOX IMVI melanoma
[23] = tested on: M14 melanoma
[24] = tested on: MALME-3M melanoma
[25] = tested on: MCF7 breast
[26] = tested on: MDA-MB-231 breast
[27] = tested on: MDA-MB-435 melanoma
[28] = tested on: MDA-MB-468 breast
[29] = tested on: MOLT-4 leukemia

Cc1ccc(NC(=O)c2cccc(N(C)C)c2)cc1NC(=O)c1ccc(O)cc1
34.4 µM: TGI [29]
25.2 µM: TGI [14] | TGI [20]
36.9 µM: TGI [11]
inactive: GI50 [1] 33.5 µM | GI50 [2] 48.2 µM | GI50 [3] 41.5 µM | GI50 [4] 40.2 µM | GI50 [5] 75.2 µM | GI50 [6] 54.6 µM | GI50 [7] 22.5 µM | GI50 [8] 18.8 µM | GI50 [9] 47.5 µM | GI50 [10] 45.3 µM | GI50 [11] 16.9 µM | GI50 [12] 29.6 µM | GI50 [13] 30.4 µM | GI50 [14] 12.5 µM | GI50 [15] 43.6 µM | GI50 [16] 38.9 µM | GI50 [17] 41.9 µM | GI50 [18] 28.9 µM | GI50 [19] 50.1 µM | GI50 [20] 12 µM | GI50 [21] 30.6 µM | GI50 [22] 38.5 µM | GI50 [23] 30.5 µM | GI50 [24] 23.5 µM | GI50 [25] 30.3 µM | GI50 [26] 32.9 µM | GI50 [27] 34.1 µM | GI50 [28] 18.1 µM | GI50 [29] 16.8 µM
87.2 µM: TGI [8]
70.7 µM: TGI [7]
> 100 µM: TGI [1] | TGI [2] | TGI [3] | TGI [4] | TGI [5] | TGI [6] | TGI [9] | TGI [10] | TGI [12] | TGI [13] | TGI [15] | TGI [16] | TGI [17] | TGI [18] | TGI [19] | TGI [21] | TGI [22] | TGI [23] | TGI [25] | TGI [26] | TGI [27]
50.5 µM: TGI [28]
71.5 µM: TGI [24]
